Drawing on ChEMBL document CHEMBL5291721, “A preclinical secondary pharmacology resource illuminates target-adverse drug reaction associations of marketed drugs” (Nat Commun, 2023), this text covers AC50 for 14 compounds.

Assay [1] concerns the target T1, Alpha-1A adrenergic receptor (Homo sapiens, UniProt P35348).
T1 sequence (P35348 whole entry): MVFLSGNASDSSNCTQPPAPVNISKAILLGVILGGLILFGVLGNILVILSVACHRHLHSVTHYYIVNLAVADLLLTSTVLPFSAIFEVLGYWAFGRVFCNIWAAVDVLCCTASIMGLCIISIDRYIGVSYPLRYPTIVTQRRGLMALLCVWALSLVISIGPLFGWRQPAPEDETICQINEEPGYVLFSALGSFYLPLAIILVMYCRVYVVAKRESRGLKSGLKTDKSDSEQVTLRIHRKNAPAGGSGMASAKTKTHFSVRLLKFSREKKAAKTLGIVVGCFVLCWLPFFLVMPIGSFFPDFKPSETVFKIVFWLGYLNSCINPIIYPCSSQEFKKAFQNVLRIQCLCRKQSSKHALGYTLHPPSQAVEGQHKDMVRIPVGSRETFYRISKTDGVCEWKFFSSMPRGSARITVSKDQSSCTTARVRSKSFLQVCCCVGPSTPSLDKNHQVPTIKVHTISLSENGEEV

Assay [2] addresses T2, Retinoic acid receptor gamma (Homo sapiens, UniProt P13631).
T2 sequence (P13631 whole entry): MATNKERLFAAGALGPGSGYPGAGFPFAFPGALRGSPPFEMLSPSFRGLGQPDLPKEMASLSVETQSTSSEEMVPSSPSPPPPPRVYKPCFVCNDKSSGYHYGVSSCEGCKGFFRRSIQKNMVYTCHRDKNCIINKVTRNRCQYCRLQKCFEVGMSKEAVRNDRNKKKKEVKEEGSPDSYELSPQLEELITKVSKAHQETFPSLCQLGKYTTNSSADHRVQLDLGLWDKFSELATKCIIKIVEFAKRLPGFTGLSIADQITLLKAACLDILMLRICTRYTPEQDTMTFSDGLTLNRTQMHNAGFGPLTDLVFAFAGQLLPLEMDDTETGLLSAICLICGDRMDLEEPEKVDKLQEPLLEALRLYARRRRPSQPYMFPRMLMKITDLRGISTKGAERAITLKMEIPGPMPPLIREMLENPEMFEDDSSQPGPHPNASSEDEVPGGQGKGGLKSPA
It is filed as functional, cell-based.

The target in assay [3] is T3, Retinoic acid receptor beta (Homo sapiens, UniProt P10826).
T3 sequence (P10826 whole entry): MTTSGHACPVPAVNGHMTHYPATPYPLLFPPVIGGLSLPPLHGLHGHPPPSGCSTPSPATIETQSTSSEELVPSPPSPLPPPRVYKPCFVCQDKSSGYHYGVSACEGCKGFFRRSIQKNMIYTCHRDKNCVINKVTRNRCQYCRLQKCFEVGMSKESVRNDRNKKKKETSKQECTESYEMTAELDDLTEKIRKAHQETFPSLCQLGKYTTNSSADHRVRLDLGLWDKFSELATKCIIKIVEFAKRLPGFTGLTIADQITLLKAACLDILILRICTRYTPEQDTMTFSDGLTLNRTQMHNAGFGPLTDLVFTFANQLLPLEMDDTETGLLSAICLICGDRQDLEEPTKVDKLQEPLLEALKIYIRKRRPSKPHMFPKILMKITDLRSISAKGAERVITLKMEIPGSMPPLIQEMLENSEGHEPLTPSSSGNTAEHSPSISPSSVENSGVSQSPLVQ
Type of assay: functional, cell-based.

Assay [4] addresses T2, Retinoic acid receptor gamma. It is filed as functional, cell-based. This is another data set of the same source.
In assay [5] the target is T4, Muscarinic acetylcholine receptor M4 (Homo sapiens, UniProt P08173).
T4 sequence (P08173 whole entry): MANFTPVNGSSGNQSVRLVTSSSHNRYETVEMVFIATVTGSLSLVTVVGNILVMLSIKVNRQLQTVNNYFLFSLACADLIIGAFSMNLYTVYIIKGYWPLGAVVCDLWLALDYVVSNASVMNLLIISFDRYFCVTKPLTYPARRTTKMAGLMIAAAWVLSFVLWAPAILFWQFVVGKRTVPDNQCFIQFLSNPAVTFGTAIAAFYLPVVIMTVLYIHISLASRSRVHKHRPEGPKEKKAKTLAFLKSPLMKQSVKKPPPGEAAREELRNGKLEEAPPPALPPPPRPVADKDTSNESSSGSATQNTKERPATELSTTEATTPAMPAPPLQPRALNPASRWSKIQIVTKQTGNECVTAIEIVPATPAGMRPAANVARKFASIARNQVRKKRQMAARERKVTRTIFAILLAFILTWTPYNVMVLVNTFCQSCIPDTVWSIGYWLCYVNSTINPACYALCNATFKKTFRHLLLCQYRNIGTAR

The target in another assay is T5, Androgen receptor (Rattus norvegicus, UniProt P15207).
T5 sequence (P15207 whole entry): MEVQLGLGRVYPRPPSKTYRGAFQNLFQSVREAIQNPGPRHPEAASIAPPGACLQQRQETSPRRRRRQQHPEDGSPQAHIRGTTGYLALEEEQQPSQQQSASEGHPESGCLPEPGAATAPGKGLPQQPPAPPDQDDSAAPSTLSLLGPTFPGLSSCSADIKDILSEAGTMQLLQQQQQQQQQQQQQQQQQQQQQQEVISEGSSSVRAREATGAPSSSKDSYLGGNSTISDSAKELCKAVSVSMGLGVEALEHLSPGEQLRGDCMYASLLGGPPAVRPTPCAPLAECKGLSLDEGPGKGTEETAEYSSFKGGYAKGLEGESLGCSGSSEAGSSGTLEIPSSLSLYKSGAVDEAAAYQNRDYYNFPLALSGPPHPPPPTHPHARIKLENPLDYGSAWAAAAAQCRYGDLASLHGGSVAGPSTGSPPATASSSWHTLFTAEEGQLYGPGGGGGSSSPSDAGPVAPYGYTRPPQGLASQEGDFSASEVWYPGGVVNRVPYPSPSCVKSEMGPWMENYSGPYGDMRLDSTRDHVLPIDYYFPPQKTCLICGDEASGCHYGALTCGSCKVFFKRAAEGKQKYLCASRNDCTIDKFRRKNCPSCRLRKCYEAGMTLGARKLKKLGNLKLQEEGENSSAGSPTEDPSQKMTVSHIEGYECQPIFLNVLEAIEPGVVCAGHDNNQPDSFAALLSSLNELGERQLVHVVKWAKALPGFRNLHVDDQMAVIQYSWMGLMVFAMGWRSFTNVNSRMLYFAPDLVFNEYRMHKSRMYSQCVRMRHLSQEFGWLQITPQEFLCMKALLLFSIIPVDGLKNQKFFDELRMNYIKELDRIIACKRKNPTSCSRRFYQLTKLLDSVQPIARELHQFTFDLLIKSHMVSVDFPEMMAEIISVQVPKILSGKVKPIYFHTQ

Assay [6] has as its target Rod cGMP-specific 3',5'-cyclic phosphodiesterase subunit alpha (Homo sapiens, UniProt P16499). Type of assay: functional.
Further: assay procedure not described here.

Sequence of Rod cGMP-specific 3',5'-cyclic phosphodiesterase subunit alpha (P16499 whole entry): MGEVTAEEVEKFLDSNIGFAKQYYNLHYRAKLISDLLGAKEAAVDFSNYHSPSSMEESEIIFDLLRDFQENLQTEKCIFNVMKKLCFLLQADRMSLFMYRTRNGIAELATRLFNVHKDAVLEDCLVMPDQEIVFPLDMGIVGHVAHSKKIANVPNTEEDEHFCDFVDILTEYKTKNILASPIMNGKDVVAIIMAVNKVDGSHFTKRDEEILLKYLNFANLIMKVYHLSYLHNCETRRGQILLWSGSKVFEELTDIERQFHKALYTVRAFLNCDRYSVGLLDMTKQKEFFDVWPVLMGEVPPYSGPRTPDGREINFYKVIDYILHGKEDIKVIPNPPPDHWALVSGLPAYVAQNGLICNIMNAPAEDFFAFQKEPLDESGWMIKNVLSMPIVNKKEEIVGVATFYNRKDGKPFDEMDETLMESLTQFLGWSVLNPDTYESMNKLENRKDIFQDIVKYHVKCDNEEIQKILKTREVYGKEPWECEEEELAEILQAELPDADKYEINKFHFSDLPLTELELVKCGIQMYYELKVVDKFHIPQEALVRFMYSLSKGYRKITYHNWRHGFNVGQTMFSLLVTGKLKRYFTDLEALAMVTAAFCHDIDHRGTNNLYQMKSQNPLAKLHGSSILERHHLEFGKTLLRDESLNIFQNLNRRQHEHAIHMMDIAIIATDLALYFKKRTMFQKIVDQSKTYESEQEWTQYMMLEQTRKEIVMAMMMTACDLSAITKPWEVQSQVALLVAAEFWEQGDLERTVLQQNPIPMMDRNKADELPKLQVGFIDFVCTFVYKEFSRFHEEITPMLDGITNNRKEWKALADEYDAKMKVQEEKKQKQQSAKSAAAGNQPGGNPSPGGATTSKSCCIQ

Broadly, the AC50 is the midpoint of the concentration-response curve, whichever way the signal moves. A low value points to greater potency. In assay [1], `O=C(Nc1cccc2c(=O)cc(-c3nnn[nH]3)oc12)c1ccc(OCCCCc2ccccc2)cc1` registered a half-maximal activity concentration (AC50) of 13.3 µM.

Regarding `CC(/C=C1\SC(=S)N(CC(=O)O)C1=O)=C\c1ccccc1`, the half-maximal activity concentration (AC50) in assay [2], in assay [3] and in assay [4] was greater than 30 µM throughout.

On to `CC1(C)S[C@@H]2[C@H](NC(=O)[C@H](N)c3ccc(O)cc3)C(=O)N2[C@H]1C(=O)O` [AMOXICILLIN], for which the half-maximal activity concentration (AC50) in assay [2] was 9.1 µM; in assay [5], greater than 10 µM; in assay [3], greater than 30 µM; in assay [4] it was greater than 30 µM; at Androgen receptor it was greater than 30 µM; in assay [6], greater than 10 µM.

Turning to `O=C1CN2Cc3c(ccc(Cl)c3Cl)N=C2N1` [ANAGRELIDE], the concentration at half-maximal activity (AC50) on Androgen receptor was greater than 30 µM.

For `CCc1oc2ccccc2c1C(=O)c1cc(Br)c(O)c(Br)c1` [BENZBROMARONE], at Androgen receptor, the half-maximal activity concentration (AC50) was greater than 10 µM.

In the case of `[H]/N=C(\N/C(=N/[H])NCCCCCCNC(=N)NC(=N)Nc1ccc(Cl)cc1)Nc1ccc(Cl)cc1` [CHLORHEXIDINE], the AC50 at Androgen receptor is greater than 30 µM.

For `COC(=O)[C@H](c1ccccc1Cl)N1CCc2sccc2C1` [CLOPIDOGREL], the concentration at half-maximal activity (AC50) in assay [5] and in assay [6] was greater than 10 µM each time.

Turning to `CCC(=O)O[C@@H](O[P@](=O)(CCCCc1ccccc1)CC(=O)N1C[C@H](C2CCCCC2)C[C@H]1C(=O)O)C(C)C` [FOSINOPRIL], in assay [1], the AC50 was greater than 30 µM.

On to `Cc1cnc(NC(=O)C2=C(O)c3ccccc3S(=O)(=O)N2C)s1` [MELOXICAM], for which the AC50 in assay [5] and in assay [6] was greater than 10 µM each time.

Take `CN(C)c1cc(CNCC(C)(C)C)c(O)c2c1C[C@H]1C[C@H]3[C@H](N(C)C)C(O)=C(C(N)=O)C(=O)[C@@]3(O)C(O)=C1C2=O` [OMADACYCLINE]: the AC50 in assay [5] and in assay [1] was greater than 30 µM each time.

Take `CNC(=O)c1cc(Oc2ccc(NC(=O)Nc3ccc(Cl)c(C(F)(F)F)c3)c(F)c2)ccn1` [REGORAFENIB]: the AC50 was 9 µM in assay [2], greater than 30 µM in assay [1], greater than 30 µM in assay [3] and greater than 30 µM in assay [4].

Take `CCOc1cc(CC(=O)N[C@@H](CC(C)C)c2ccccc2N2CCCCC2)ccc1C(=O)O` [REPAGLINIDE]: the AC50 in assay [2], in assay [3] and in assay [4] was greater than 30 µM each time.

`CCCCNc1ccc(C(=O)OCCN(C)C)cc1` [TETRACAINE]: the AC50 in assay [5] and in assay [6] was greater than 10 µM each time.

In assay [1], `CN1CCN(CCCN2c3ccccc3Sc3ccc(S(=O)(=O)N(C)C)cc32)CC1` [THIOPROPERAZINE] registered a concentration at half-maximal activity (AC50) of 0.003 µM.
